These results are taken from EP2832223A1, “HERBICIDAL COMPOSITION” (Ishihara Sangyo Kaisha, Ltd., priority 2012, dated 2013).

Structures are written as SMILES.

Holding throughout (format): in vivo
Experiment [1] concerns annual ragweed (Ambrosia artemisiifolia L.). Nature of the experiment: Test Example 11: pot test, soil treatment, visual growth inhibition. The note with it: soil treatment, 28th day after treatment, read-out: Growth inhibition rate (%) of annual ragweed Measured value. How it is done: Upland field soil was put into a 1/300,000 ha pot, and seeds of annual ragweed (Ambrosia artemisiifolia L.) were sown. On the next day, predetermined amounts of ONEHOPE NYUZAI (tradename), Click (tradename), Mikado (tradename) and a wettable powder containing bicyclopyrone prepared in accordance with a conventional formulation method were diluted with water (in an amount corresponding to 1,000 L/ha) and applied for soil treatment by a small sprayer.
On the 28th day after treatment, the state of growth of the annual ragweed was visually observed to determine the growth inhibition rate (%). The growth inhibition rate (%) (measured value) and the growth inhibition rate (%) calculated in the same manner as in the above Test Example 1 are shown in Table 11.

In experiment [2] the test system is common cocklebur (Xanthium strumarium L.). Nature of the experiment: Test Example 1: pot test, foliar treatment, visual growth inhibition. The note with it: foliar treatment at 4.3 to 4.8-leaf stage, 22nd day after treatment, read-out: Growth inhibition rate (%) of common cocklebur Measured value. The source says: In the present invention, a synergistic effect means a higher herbicidal activity of three active ingredients combined, than the simple sum of the respective herbicidal activities of the three active ingredients (the expected activity). The activity expected by the combination of three active ingredients can be calculated as follows (Colby S.R., "Weed", vol. 15, p. 20-22, 1967). […] Upland field soil was put into a 1/300,000 ha pot, and seeds of common cocklebur (Xanthium strumarium L.) were sown. […] Click, manufactured by BASF) and EC formulation containing dimethenamid-P as an active ingredient (tradename: Spectrum, manufactured by BASF) were diluted with water (in an amount corresponding to 1,000 L/ha) and applied for foliar treatment by a small sprayer. On the 22nd day after treatment, the state of growth of the common cocklebur was visually observed to determine the growth inhibition rate (%) in accordance with the following evalution standard. The growth inhibition rate (%) (measured value) and the growth inhibition rate (%) (calculated value) calculated by the Colby's formula are shown in Table 1.

The test system of experiment [3] is korean lespedeza (Kummerowia stipulacea (Maxim.) Makino). Nature of the experiment: Test Example 6: pot test, soil treatment, visual growth inhibition. The following applies: soil treatment, 14th day after treatment, read-out: Growth inhibition rate (%) of korean lespedeza Measured value. How it is done: Upland field soil was put into a 1/300,000 ha pot, and seeds of korean lespedeza (Kummerowia stipulacea (Maxim.) Makino) were sown. On the next day, predetermined amounts of ONEHOPE NYUZAI (tradename), Click (tradename), Mikado (tradename) and a wettable powder containing bicyclopyrone prepared in accordance with a conventional formulation method were diluted with water (in an amount corresponding to 1,000 L/ha) and applied for soil treatment by a small sprayer.
On the 14th day after treatment, the state of growth of the korean lespedeza was visually observed to determine the growth inhibition rate (%). The growth inhibition rate (%) (measured value) and the growth inhibition rate (%) calculated in the same manner as in the above Test Example 1 are shown in Table 6.

Take `CCNc1nc(Cl)nc(NC(C)(C)C)n1` [Terbuthylazine, N^2-tert-butyl-6-chloro-N^4-ethyl-1,3,5-triazine-2,4-diamine]: the figures for the inhibition at 200 g/ha in experiment [1] (200 g/ha) and in experiment [3] (200 g/ha) were 20% and 10%, respectively. Further, the inhibition at 500 g/ha in experiment [2] (500 g/ha) stood at 10%. Besides, the inhibition at 2000 g/ha in experiment [3] (2000 g/ha) came to 25%.

As for `COc1cc(OC)nc(NC(=O)NS(=O)(=O)c2ncccc2C(=O)N(C)C)n1` [Nicosulfuron, 2-(4,6-dimethoxypyrimidin-2-ylcarbamoylsulfamoyl)-N,N-dimethylnicotinamide], the inhibition at 100 g/ha in experiment [1] (100 g/ha) and in experiment [3] (100 g/ha) was 0% in each case. The inhibition at 30 g/ha in experiment [2] (30 g/ha) was 0%. In addition, the inhibition at 10 g/ha in experiment [3] (10 g/ha) turned out to be 0%.

As a reminder, the inhibition is the change of the read-out against control, counted positive when it falls.
